Laboratory results: patent US20120309811A1, “P-GLYCOPROTEIN-SPECIFIC NON-COMPETITIVE PEPTIDE AND PEPTIDOMIMETIC MODULATORS” (UNIVERSITE CLAUDE BERNARD - LYON 1, priority 2009, published 2012)

Tests used:
Assay type in all cases: cell-based
BCRP = molecular target: T1, BCRP (Homo sapiens, UniProt Q9UNQ0); test: Flow cytometry, inhibition of mitoxantrone efflux in HEK-293 cells transfected with BCRP; settings: 10 μM compound
T1 construct: expressed in transfected cells; host or cells: HEK-293 (ATCC CRL-1573), pcDNA3.1 expression vector (Invitrogen)
T1 sequence (Q9UNQ0 1-655): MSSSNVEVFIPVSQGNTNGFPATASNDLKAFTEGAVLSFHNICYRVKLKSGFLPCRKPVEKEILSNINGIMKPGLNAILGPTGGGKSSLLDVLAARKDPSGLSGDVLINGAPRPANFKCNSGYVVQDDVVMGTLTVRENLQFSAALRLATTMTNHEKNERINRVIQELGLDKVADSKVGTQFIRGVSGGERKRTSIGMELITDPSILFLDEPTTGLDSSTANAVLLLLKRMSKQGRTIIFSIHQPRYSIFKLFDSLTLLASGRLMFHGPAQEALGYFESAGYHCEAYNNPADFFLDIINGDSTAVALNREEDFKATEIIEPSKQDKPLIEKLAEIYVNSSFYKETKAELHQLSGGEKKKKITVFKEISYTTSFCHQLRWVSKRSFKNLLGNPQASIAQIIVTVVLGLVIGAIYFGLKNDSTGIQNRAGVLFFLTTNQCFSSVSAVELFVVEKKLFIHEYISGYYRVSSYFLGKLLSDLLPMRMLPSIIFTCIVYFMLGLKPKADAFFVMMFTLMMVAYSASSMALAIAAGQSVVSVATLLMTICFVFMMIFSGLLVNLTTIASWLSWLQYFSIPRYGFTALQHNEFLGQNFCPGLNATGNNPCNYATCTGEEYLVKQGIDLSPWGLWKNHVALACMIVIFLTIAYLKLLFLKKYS
From the text: (§1) The HEK-293 human fibroblast line (ATCC cell collection CRL-1573) is transfected with either BCRP (Robey R. W. et al. 2003, Br. J. Cancer 89(10) 1971-1978, [32]) or ABCC1, cloned into the pcDNA3.1 expression vector (Invitrogen), or with the empty pcDNA3.1 vector. The NIH3T3 cell line (ATCC CRL-1658) was stably transfected with pHaMDR1/A (Cardarelli et al. 1995 Cancer Res 55 1086-1091, [33]), which is a retroviral vector that expresses the wild-type MDR1 protein. The BHK-21 cell line (ATCC CCL-10) was transfected with MRP1 cloned into the pcDNA3.1 expression vector, or the empty pcDNA3.1 vector. The cells are maintained in culture in DMEM glutamax II (Invitrogen) supplemented with 10% of fetal bovine serum and 1% of penicillin/streptomycin. The data are processed with Sigmaplot V11 (http://www.systat.com/), and the equation for mathematical adjustment of the experimental data for calculating the IC50 values: f=a×(1−exp(−b×x)) (a=slope, b=intercept on the y-axis).
(§2) The cells expressing P-gp, BCRP and MRP, and their corresponding controls, are placed in the presence of 10 and 2 μM of mitoxantrone for the first two transporters and of 1 μM of daunorubicin for the 3rd. Substrate accumulation is carried out for 30 minutes at 37° C. in the presence or absence of varied concentrations of the molecules tested, at a final DMSO (dimethyl sulfoxide) concentration of 0.5%. After washing with PBS (phosphate buffered saline), the cells are incubated in medium containing the same concentrations of molecules tested as previously, for 1 h at 37° C. The intracellular fluorescence of mitoxantrone and daunorubicin anticancer agent is measured with the FACscan flow cytometer (Becton Dickinson, Mountain, View, Calif.). The drugs are excited at 488 nm. The emission of mitoxantrone is measured at 650 nm, whereas the emission of daunorubicin is measured at 530 nm. The effectiveness of the molecules tested is expressed by equation 1: % effectiveness=100×(FA−FBG)/(FC−FBG), where FA corresponds to the intracellular level of substrate measured in the cells overexpressing ABCG2 (corresponding to the lowest level of fluorescence in the absence of inhibitor), FC corresponds to the fluorescence in the control cells transfected with the empty vector (and therefore to the maximum accumulation of substrate in the cells) and FBG corresponds to the fluorescence measured in the absence of substrate and in the presence of inhibitor.
(§3) The inhibitory effect of the compounds is quantified by measuring, by flow cytometry, the efflux of an anticancer drug transported by the pump under consideration, i.e. mitoxantrone for P-gp and BCRP and daunorubicin for MRP1. It is compared with that of the reference product, reversin 121. The products are tested at 10 μM, then at 2 μM for those which block at least 80% of the efflux of mitoxantrone, and for some, a more complete concentration range is tested so as to establish the concentration value producing 50% inhibition, IC50, as indicated in FIG. 3.

P-gp [1] = molecular target: T2, P-gp (Homo sapiens, UniProt P08183); test: Flow cytometry, inhibition of mitoxantrone efflux in NIH3T3 cells expressing P-gp
T2 construct: expressed in transfected cells; host or cells: NIH3T3 (ATCC CRL-1658), stably transfected with retroviral vector pHaMDR1/A
From the text: as §1, §2, §3

[2] = tested on: NIH3T3 cells expressing or not expressing P-gp; test: Cytotoxicity test (MTT), cell survival after 72 h
Experimental: The cells are seeded in a proportion of 10 000 per well in 96-well plates and incubated for 24 hours at 37° C. under 5% CO2. Varied concentrations of compounds Nos 2, 3, 4, 5 and 6, up to 20 times the IC50, are then added. The cytotoxicity is evaluated colorinnetrically with 3-(4,5-dimethylthiazol-2-yl)-2,5-diphenyltetrazolium bromide (MTT).
Increasing concentrations of compound No. 4 or No. 6 are applied to NIH3T3 cells expressing or not expressing P-gp. The cell survival is measured after 72 h and is expressed as a percentage. At 10 times the half-maximum-effect concentration, these two compounds are not toxic. Above this, the toxicity of compound No. 4 remains negligible, while that of compound No. 6 remains limited.

MRP1 = molecular target: T3, MRP1 (Homo sapiens, UniProt P33527); test: Flow cytometry, inhibition of daunorubicin efflux in cells transfected with MRP1; settings: human, probe daunorubicin, 10 μM compound, read-out: % pump inhibition at 10 μM of compound, MRP1
T3 construct: expressed in transfected cells; host or cells: BHK-21 (ATCC CCL-10) with MRP1 in pcDNA3.1; HEK-293 transfected with ABCC1 in pcDNA3.1 is also described
From the text: as §1, §2
The inhibitory effect of the compounds is quantified by measuring, by flow cytometry, the efflux of an anticancer drug transported by the pump under consideration, i.e. mitoxantrone for P-gp and BCRP and daunorubicin for MRP1. It is compared with that of the reference product, reversin 121. […]

P-gp [3] = molecular target: T2, P-gp; test: Kinetics of inhibition of daunorubicin efflux produced by P-gp (mode of inhibition); settings: Lineweaver & Burke double reciprocal representation
Experimental: FIGS. 6A and 6B show the kinetics of inhibition of daunorubicin efflux produced by P-gp, with compound No. 6. The intracellular daunorubicin fluorescence is measured in the presence of increasing concentrations of No. 6, respectively 0 (circles), 0.12 μM (triangles), 0.22 μM (squares), 0.44 μM (diamonds) and 10 μM (upward-pointing triangles), corresponding to 0, 25, 50, 75 and 100% efflux inhibition effectiveness. FIG. 6A: direct representation, FIG. 6B, Lineweaver & Burke double reciprocal representation.
The intracellular concentration of fluorescent daunorubicin is measured at increasing daunorubicin concentrations, in the presence or absence of fixed concentrations of 0, 0.12 μM, 0.22 μm, 0.44 μM and 10 μM of compound No. 6 corresponding to 0%, 25%, 50%, 75% and 100% efflux inhibition effectiveness according to FIG. 3.

T2 sequence (P08183 whole entry): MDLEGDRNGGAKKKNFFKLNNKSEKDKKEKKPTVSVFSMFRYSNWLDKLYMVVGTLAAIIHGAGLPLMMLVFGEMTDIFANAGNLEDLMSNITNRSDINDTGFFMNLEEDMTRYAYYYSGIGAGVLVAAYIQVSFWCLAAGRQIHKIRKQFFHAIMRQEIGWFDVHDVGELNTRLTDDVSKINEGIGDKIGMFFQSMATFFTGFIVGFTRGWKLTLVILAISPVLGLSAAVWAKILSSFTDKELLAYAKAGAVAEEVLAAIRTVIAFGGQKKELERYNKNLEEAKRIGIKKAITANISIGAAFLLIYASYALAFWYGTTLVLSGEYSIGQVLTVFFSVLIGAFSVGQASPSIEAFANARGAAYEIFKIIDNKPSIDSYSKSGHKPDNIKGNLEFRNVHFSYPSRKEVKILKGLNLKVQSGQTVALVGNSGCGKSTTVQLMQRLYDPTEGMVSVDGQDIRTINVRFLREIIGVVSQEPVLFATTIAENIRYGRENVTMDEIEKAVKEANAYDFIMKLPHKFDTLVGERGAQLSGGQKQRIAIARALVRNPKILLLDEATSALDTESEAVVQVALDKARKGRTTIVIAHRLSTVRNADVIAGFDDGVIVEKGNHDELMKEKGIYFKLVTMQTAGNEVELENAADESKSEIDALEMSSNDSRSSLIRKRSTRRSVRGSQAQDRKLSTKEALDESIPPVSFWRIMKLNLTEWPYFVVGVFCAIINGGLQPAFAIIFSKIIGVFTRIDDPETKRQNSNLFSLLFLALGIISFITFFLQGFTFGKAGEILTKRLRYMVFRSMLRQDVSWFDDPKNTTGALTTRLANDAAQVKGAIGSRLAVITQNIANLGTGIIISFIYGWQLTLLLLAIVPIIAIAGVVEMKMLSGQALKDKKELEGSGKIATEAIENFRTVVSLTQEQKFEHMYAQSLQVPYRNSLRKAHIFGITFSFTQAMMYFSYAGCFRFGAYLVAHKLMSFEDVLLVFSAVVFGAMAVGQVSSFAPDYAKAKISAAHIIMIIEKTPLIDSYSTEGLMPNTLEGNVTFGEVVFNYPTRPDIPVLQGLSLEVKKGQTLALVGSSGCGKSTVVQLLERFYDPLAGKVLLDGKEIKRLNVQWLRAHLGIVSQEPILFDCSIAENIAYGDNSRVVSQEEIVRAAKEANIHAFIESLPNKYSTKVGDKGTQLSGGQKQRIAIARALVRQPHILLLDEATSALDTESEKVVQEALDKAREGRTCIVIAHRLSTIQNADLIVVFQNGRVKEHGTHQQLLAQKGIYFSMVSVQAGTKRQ
T3 sequence (P33527 whole entry): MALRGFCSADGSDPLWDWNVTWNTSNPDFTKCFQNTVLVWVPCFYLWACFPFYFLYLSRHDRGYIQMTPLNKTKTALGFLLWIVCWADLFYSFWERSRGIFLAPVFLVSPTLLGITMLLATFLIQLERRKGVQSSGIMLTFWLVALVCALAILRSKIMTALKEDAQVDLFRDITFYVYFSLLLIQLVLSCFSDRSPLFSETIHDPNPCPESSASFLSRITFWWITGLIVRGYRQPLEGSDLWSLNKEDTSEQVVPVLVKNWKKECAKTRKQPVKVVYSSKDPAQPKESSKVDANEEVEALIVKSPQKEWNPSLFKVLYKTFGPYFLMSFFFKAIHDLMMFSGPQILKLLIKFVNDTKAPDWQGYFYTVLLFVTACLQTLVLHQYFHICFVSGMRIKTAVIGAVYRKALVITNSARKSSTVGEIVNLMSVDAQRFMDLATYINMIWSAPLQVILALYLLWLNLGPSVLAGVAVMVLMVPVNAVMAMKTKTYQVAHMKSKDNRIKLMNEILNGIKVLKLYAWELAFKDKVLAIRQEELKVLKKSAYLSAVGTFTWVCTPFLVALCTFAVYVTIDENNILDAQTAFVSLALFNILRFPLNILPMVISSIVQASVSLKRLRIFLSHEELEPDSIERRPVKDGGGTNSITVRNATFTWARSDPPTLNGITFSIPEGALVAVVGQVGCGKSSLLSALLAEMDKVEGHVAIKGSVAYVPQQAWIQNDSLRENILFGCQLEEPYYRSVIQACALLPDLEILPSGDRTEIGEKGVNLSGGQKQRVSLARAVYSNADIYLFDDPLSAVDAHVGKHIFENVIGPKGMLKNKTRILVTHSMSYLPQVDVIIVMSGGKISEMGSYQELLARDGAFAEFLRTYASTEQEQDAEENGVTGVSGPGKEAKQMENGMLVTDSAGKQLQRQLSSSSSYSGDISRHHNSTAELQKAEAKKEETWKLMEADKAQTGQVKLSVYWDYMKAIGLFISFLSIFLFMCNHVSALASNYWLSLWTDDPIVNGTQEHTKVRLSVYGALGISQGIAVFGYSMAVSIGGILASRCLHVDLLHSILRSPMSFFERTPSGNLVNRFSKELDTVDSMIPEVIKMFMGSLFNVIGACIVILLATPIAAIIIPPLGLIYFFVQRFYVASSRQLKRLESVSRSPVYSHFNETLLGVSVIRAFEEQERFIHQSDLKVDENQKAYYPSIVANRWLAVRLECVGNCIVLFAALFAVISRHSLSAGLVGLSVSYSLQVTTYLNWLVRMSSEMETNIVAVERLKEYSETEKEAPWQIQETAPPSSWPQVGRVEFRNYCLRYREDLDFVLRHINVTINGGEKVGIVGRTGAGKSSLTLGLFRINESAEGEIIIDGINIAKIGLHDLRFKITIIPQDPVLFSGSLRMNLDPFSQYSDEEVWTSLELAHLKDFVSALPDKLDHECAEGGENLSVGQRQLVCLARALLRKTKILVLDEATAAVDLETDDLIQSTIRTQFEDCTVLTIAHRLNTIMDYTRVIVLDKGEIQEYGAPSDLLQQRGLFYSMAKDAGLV

## CC(C)(C)OC(=O)[C@H](CCCCNC(=O)OCc1ccccc1)NC[C@@H]1C[C@@H](OCc2ccccc2)CN1C(=O)OC(C)(C)C [No. 6, N^α-Boc-trans-L-4-Hyp(Bn)-ψ(CH2-NH)-L-Lys(Z)-OtBu]
BCRP
  % pump inhibition at 10 μM of compound, BCRP: 42.3 ± 0.8%
P-gp [1]
  IC50 for P-gp compared with that of reversin 121: seven times better
P-gp [1]; 10 μM compound, mitoxantrone efflux
  % pump inhibition at 10 μM of compound, P-gp: 106.9 ± 23.0%
P-gp [1]; human, probe mitoxantrone, 0.12 μM compound, according to FIG. 3, read-out: efflux inhibition effectiveness
  inhibition at 1 h, 0.12 µM: 25%
P-gp [1]; human, probe mitoxantrone, 0.44 μM compound, according to FIG. 3, read-out: efflux inhibition effectiveness
  inhibition at 1 h, 0.44 µM: 75%
P-gp [1]; human, probe mitoxantrone, 10 μM compound, according to FIG. 3, read-out: efflux inhibition effectiveness
  inhibition at 1 h, 10 µM: 100%
P-gp [1]; human, probe mitoxantrone, 0.22 μm compound, according to FIG. 3, read-out: efflux inhibition effectiveness
  inhibition at 1 h, 0.22 μM: 50%
P-gp [1]; mitoxantrone efflux, mathematical adjustment of experimental points
  IC50: 220 ± 30 nM
[2]; above 10 times the half-maximum-effect concentration
  cytotoxicity: limited
[2]; at 10 times the half-maximum-effect concentration
  cytotoxicity: not toxic
MRP1
  inhibition at 1 h, 10 µM: < 10%
P-gp [3]
  mechanism of inhibition: noncompetitive
